Here are results for 1 compound from patent US20150139961A1, “Reprogramming Blood Cells to Pluripotent and Multipotent Stem Cells” (The Johns Hopkins University, priority 2009, published 2015).

SMILES strings stand for the structures.

In one assay the test system is CB CD34+ cells. The assay can be described thus: Reprogramming of cord blood CD34+ cells by EBNA1/OriP plasmids, TRA-1-60+ colonies at day 14. The class given is cell-based, human. The note with it: NaB 0.25 mM, with either vector combination.
A further assay concerns CB MNCs. The assay can be described thus: Reprogramming of cultured cord blood mononuclear cells by EBNA1/OriP plasmids. The class given is cell-based, human. The settings on record: added to pEB-C5. On the procedure: After thawing, frozen MNCs from CB and PB) were cultured in the SFM supplemented with the following cytokines and a hormone: SCF (50 ng/ml), IL-3 (10 ng/ml), EPO (2U/ml, R&D Systems), IGF-1 (40 ng/ml) and dexamethasone (1 uM, Sigma). The media were replenished at day 3 and 6. By day 8-9 when an overt sign of cell division was observed, cells were harvested for nucleofection as well for various analyses. Approximately 3.5-fold cells were obtained for CB at day 8 and 1.5-fold for PB MNC at day 9. After optimizing nucleofection of the cultured MNCs to achieve maximal cell survival and gene transfer, the inventor settled down with the same Human CD34 Cell solution [Nucleofector Kit VPA-1003] but with 2×10^6 cultured cells. The transfected MNCs were cultured in the same medium for days and then further reprogrammed on MEF feeder cells as described above with cultured CD34+ cells. […]
TRA-1-60 Live Staining for identifying fully reprogrammed clones: TRA-1-60 antibody (mouse IgM, used as 1:300 of MAB4360, Millipore) and Alexa555-conjugated anti-mouse IgM secondary antibody (1:500, Invitrogen) were diluted in ESC medium and added into reprogramming cell culture plates. […] TRA-1-60 positive colonies were identified under an inverted fluorescence microscope, and can be picked up within 1 day after staining for further expansion and characterization.

Method for CB CD34+ cells: In the first set of 3 experiments, the pEB-C5 and pEB-Tg plasmids were used in comparison with the Thomson/Yu combination #6 containing 3 plasmids. After expansion (˜5-flod) with cytokines for 4 days, CB CD34+ cells were transfected once and then cultured following the standard protocol of deriving human iPSCs. […] Transfected cells were cultured for 2 more days before transferring onto 6 wells coated with MEF feeder cells. At day 3, the ESC culture medium was used in the presence or absence of NaB (0.25 mM) or VPA (0.5 mM). After day 9, the MEF-derived conditioned medium (CM) was used to substitute plain ESC medium. […] At day 14, cultures can be stained live with the TRA-1-60 antibody. TRA-1-60+ colonies with ESC-like morphology were picked after counting all the colonies.
After thawing, CD34+ cells were cultured for 4 to 5 days under a serum-free medium (SFM): containing 50% IMDM with 50% Ham's F12 (Invitrogen), ITS supplement (insulin-transferrin-selenium and 5 mg/ml BSA), synthetic lipids, 50 ug/ml of ascorbic acid and 2 mM glutamine (all from Sigma). […]
The cell culture plates with sizable ESC-like colonies were incubated in 37° C. for 1 hour before medium was changed to fresh ESC medium or CM. TRA-1-60 positive colonies were identified under an inverted fluorescence microscope, and can be picked up within 1 day after staining for further expansion and characterization.

Take `CCCC(=O)[O-].[Na+]` [NaB, Sodium butyrate]: the “effect on number (and percentages) of TRA-1-60+ colonies” value in the assay with CB CD34+ cells is on record as “consistently enhance”. The “stimulatory effect on reprogramming” value with CB MNCs is “minimal”.
